# According to US20220098201A1, “THE MONOHYDRATE OF ROGARATINIB HYDROCHLORIDE AND SOLID STATES THEREOF” (Bayer Aktiengesellschaft, priority 2019, published 2022):
# What was measured:
# [1] = Slurry experiments of monohydrate (A) in various solvents; format: physicochemical
# Text: The residues were filtered off and dried at room temperature and ambient humidity. Reproducible preparation was not possible for all solid state forms.
# [2] = Storage of solid forms in closed vessels at 25° C. and 50° C.; format: physicochemical; conditions: for Modification after storage in closed vessels: 12 months, humidity not set
# [3] = Moisture sorption: storage at various humidities, thermogravimetric analysis; format: physicochemical; conditions: for Mass loss after storage / Modification after storage: 25° C., 12 months
# Method: TGA thermograms were recorded using thermobalances (model TGA7 and Pyris 1) from Perkin-Elmer.
# The measurements were performed with a heating rate of 10 Kmin^−1 using open platinum pans. Flow gas was nitrogen. There was no sample preparation.
# Their moisture content was then determined by thermogravimetric analysis.
# [4] = Crystalline form (XRPD) in coated tablet during storage; format: physicochemical; conditions: see Table 5
# Method: X-Ray diffraction patterns were recorded at room temperature using XRD-diffractometers X'Pert PRO (PANalytical) and STOE STADI-P (radiation Cu K alpha 1, wavelength 1.5406 Å). There was no sample preparation. All X-Ray reflections are quoted as °2θ (theta) values (peak maxima) with a resolution of ±0.2°.
# Tablets with compound III were manufactured according to the method described above and an initial XRPD was recorded.
# [5] = Stability in brown glass bottle; format: physicochemical; conditions: for Assay calc. on dried substance / Ethanol / Material and colour / Sum of all organic impurities / Water: brown glass bottle
# [6] = Solubility in water compared with free base; format: physicochemical; conditions: compared with the free base
# Bioavailability = conditions: stated as result of better solubility than the free base
# [7] = Hygroscopicity and chemical stability of the di-hydrochloride on standing in air; format: physicochemical
structure (smiles),measurement,setting,value
"COCc1c(-c2cc3cc(C)cc(OC)c3s2)c2c(N)ncnn2c1CN1CCNC(=O)C1.Cl.O [Compound (III), 4-{[4-amino-6-(methoxymethyl)-5-(7-methoxy-5-methyl-1-benzothiophen-2-yl)pyrrolo[2,1-f][1,2,4]triazin-7-yl]methyl}piperazin-2-one hydrochloride hydrate]",Modification residue,"[1]; slurry in 1,4-Dioxane, 25 ° C., stirring time 1 week",Monohydrate (A)
same,Modification residue,"[1]; slurry in Acetonitrile/water (1:1), 25 ° C., stirring time 1 week",Monohydrate (A)
same,Modification residue,"[1]; slurry in Ethanol, 25 ° C., stirring time 4 weeks",Monohydrate (A)
same,Modification residue,"[1]; slurry in Ethanol/water (1:1), 25 ° C., stirring time 1 week",Monohydrate (A)
same,Modification residue,"[1]; slurry in Isopropanol, 0 ° C., stirring time 1 week",Monohydrate (A)
same,Modification residue,"[1]; slurry in Isopropanol, 25 ° C., stirring time 4 weeks",Monohydrate (A)
same,Modification residue,"[1]; slurry in Methanol, 0 ° C., stirring time 2 weeks",¾-Hydrate (D)
same,Modification residue,"[1]; slurry in Methanol, 0 ° C., stirring time 5 weeks",Dihydrate (B)
same,Modification residue,"[1]; slurry in Methanol, 25 ° C., stirring time 1 week",Monohydrate (A)
same,Modification residue,"[1]; slurry in Tetrahydrofurane/water (1:1), 25 ° C., stirring time 4 weeks",Monohydrate (A)
same,Modification residue,"[1]; slurry in Toluene, 25 ° C., stirring time 4 weeks",Monohydrate (A)
same,Modification after storage in closed vessels,[2]; 25° C.,Monohydrate
same,Modification after storage in closed vessels,[2]; 50° C.,Monohydrate
same,physical stability,[2]; Storage at 25 and 50° C. for 12 month,no changes in stability
same,Mass loss after storage,[3]; 15% r. h.,3.7%
same,Modification after storage,[3]; 15% r. h.,Monohydrate
same,Mass loss after storage,[3]; 85% r. h.,3.7%
same,Modification after storage,[3]; 85% r. h.,Monohydrate
same,Mass loss after storage,[3]; 97% r. h.,3.7%
same,Modification after storage,[3]; 97% r. h.,Monohydrate
same,Hygroscopicity,"[3]; conclusion from moisture sorption tests, 12 month at 15%, 85% and 97% r.h.",not hygroscopic
same,uptake of water,"[3]; stored for 12 month at 15% r.h., 85% r.h and 97% r.h.",no uptake of water
same,Stability of the form in the tablet matrix,[4],stable in the tablet matrix and does not change during storage
same,Stability during storage over a long period of time,[5],very stable during storage
same,Assay calc. on dried substance,"[5]; 25° C./60% r.h., 3 months",99.8%
same,Ethanol,"[5]; 25° C./60% r.h., 3 months",0.460%
same,Material and colour,"[5]; 25° C./60% r.h., 3 months",slightly grey-tinged solid
same,Sum of all organic impurities,"[5]; 25° C./60% r.h., 3 months",1.08%
same,Water,"[5]; 25° C./60% r.h., 3 months",3.9%
same,Assay calc. on dried substance,"[5]; 25° C./60% r.h., 6 months",100.0%
same,Ethanol,"[5]; 25° C./60% r.h., 6 months",0.467%
same,Material and colour,"[5]; 25° C./60% r.h., 6 months",slightly grey-tinged solid
same,Sum of all organic impurities,"[5]; 25° C./60% r.h., 6 months",1.05%
same,Water,"[5]; 25° C./60% r.h., 6 months",3.5%
same,Assay calc. on dried substance,"[5]; 25° C./60% r.h., 9 months",100.0%
same,Ethanol,"[5]; 25° C./60% r.h., 9 months",0.444%
same,Material and colour,"[5]; 25° C./60% r.h., 9 months",slightly grey-tinged solid
same,Sum of all organic impurities,"[5]; 25° C./60% r.h., 9 months",1.14%
same,Water,"[5]; 25° C./60% r.h., 9 months",3.5%
same,Assay calc. on dried substance,"[5]; 25° C./60% r.h., 12 months",98.1%
same,Ethanol,"[5]; 25° C./60% r.h., 12 months",0.441%
same,Material and colour,"[5]; 25° C./60% r.h., 12 months",slightly grey-tinged solid
same,Sum of all organic impurities,"[5]; 25° C./60% r.h., 12 months",1.22%
same,Water,"[5]; 25° C./60% r.h., 12 months",3.6%
same,Assay calc. on dried substance,"[5]; 25° C./60% r.h., 18 months",100.4%
same,Ethanol,"[5]; 25° C./60% r.h., 18 months",0.434%
same,Material and colour,"[5]; 25° C./60% r.h., 18 months",slightly grey-tinged solid
same,Sum of all organic impurities,"[5]; 25° C./60% r.h., 18 months",1.17%
same,Water,"[5]; 25° C./60% r.h., 18 months",3.6%
same,Assay calc. on dried substance,"[5]; 25° C./60% r.h., 24 months",98.8%
same,Ethanol,"[5]; 25° C./60% r.h., 24 months",0.415%
same,Material and colour,"[5]; 25° C./60% r.h., 24 months",slightly grey-tinged solid
same,Sum of all organic impurities,"[5]; 25° C./60% r.h., 24 months",1.14%
same,Water,"[5]; 25° C./60% r.h., 24 months",3.5%
same,Assay calc. on dried substance,"[5]; 40° C./75% r.h., 3 months",98.4%
same,Ethanol,"[5]; 40° C./75% r.h., 3 months",0.406%
same,Material and colour,"[5]; 40° C./75% r.h., 3 months",slightly grey-tinged solid
same,Sum of all organic impurities,"[5]; 40° C./75% r.h., 3 months",1.17%
same,Water,"[5]; 40° C./75% r.h., 3 months",3.6%
same,Assay calc. on dried substance,"[5]; 40° C./75% r.h., 6 months",99.7%
same,Ethanol,"[5]; 40° C./75% r.h., 6 months",0.435%
same,Material and colour,"[5]; 40° C./75% r.h., 6 months",slightly grey-tinged solid
same,Sum of all organic impurities,"[5]; 40° C./75% r.h., 6 months",1.00%
same,Water,"[5]; 40° C./75% r.h., 6 months",3.4%
same,Assay calc. on dried substance,[5]; initial,100.3%
same,Ethanol,[5]; initial,0.533%
same,Material and colour,[5]; initial,slightly grey-tinged solid
same,Sum of all organic impurities,[5]; initial,1.03%
same,Water,[5]; initial,3.5%
same,chemical stability,[5]; during storage for several years,chemically stable
same,solubility in water,[6],significantly better solubility in water
same,bioavailability,Bioavailability,enhanced bioavailability
COCc1c(-c2cc3cc(C)cc(OC)c3s2)c2c(N)ncnn2c1CN1CCNC(=O)C1.Cl.O.O.O [Trihydrate],Modification after storage in closed vessels,[2]; 25° C.,Trihydrate
same,Mass loss after storage,[3]; 85% r. h.,3.3%
same,Modification after storage,[3]; 85% r. h.,Monohydrate*
same,Mass loss after storage,[3]; 97% r. h.,6.0%
same,Modification after storage,[3]; 97% r. h.,Monohydrate*
same,Change of solid form during storage at high humidity,[3]; storage at high humidity,changed into the monohydrate
"COCc1c(-c2cc3cc(C)cc(OC)c3s2)c2c(N)ncnn2c1CN1CCNC(=O)C1.Cl.Cl [di-hydrochloride, di-hydrochloride of 4-{[4-Amino-6-(methoxymethyl)-5-(7-methoxy-5-methyl-1-benzothiophen-2-yl)pyrrolo[2,1-f][1,2,4]triazin-7-yl]methyl}piperazin-2-one]",Hygroscopicity,[7],very hydroscopic
same,chemical stability,[7]; on standing in the air,loses HCl on standing in the air
COCc1c(-c2cc3cc(C)cc(OC)c3s2)c2c(N)ncnn2c1CN1CCNC(=O)C1.Cl.O.O [Dihydrate (B)],Change of solid form during storage in a closed vessel,"[2]; closed vessel, within two weeks",transformed into the monohydrate
same,Change of solid form of isolated residue,"[2]; stored at room temperature, in the course of two weeks",transformed into the Monohydrate
